From US7470706B2, “Cycloalkyl-substituted 7-amino-4-quinolone-3-carboxylic acid derivatives, process for their preparation and their use as medicaments” (Sanofi-Aventis Deutschland GmbH, priority 2004, dated 2008)

Biological target: T1, human glycogen phosphorylase a (Homo sapiens, UniProt P06737)
T1 sequence (P06737 1-847): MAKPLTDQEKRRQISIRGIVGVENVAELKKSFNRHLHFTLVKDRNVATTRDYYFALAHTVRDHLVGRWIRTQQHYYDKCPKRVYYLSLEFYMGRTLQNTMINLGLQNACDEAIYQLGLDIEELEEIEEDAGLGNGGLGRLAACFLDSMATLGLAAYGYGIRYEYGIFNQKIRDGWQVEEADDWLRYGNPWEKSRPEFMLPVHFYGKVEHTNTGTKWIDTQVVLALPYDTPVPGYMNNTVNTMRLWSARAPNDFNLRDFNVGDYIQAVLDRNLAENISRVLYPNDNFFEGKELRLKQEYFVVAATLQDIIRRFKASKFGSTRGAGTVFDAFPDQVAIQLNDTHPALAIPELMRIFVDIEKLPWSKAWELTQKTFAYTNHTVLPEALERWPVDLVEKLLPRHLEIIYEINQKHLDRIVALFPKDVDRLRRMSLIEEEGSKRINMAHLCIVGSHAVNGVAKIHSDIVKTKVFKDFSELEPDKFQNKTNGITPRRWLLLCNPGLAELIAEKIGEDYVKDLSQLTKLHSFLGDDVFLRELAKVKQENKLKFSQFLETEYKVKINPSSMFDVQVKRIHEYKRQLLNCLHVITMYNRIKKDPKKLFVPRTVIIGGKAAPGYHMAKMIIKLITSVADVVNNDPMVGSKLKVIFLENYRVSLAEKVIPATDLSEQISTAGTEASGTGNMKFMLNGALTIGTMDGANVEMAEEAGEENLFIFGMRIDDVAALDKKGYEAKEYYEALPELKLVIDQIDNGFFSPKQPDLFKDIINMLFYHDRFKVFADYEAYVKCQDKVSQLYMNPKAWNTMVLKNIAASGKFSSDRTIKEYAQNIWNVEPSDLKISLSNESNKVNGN
Assay: Glycogen phosphorylase a activity assay
Format: biochemical
Conditions: 10 μM test substance; reverse direction (glycogen synthesis from glucose 1-phosphate), inorganic phosphate liberation
Method: Glycogen Phosphorylase a Activity Assay
The effect of compounds on the activity of the active form of glycogen phosphorylase (GPa) was measured in the reverse direction by following the synthesis of glycogen from glucose 1-phosphate by determining the liberation of inorganic phosphate. All the reactions were carried out as duplicate determinations in microtiter plates with 96 wells (Half Area Plates, Costar No 3696), measuring the change in absorption owing to the formation of the reaction product at the wavelength specified hereinafter in a Multiskan Ascent Elisa Reader (Lab Systems, Finland).
In order to measure the GPa enzymic activity in the reverse direction, the general method of Engers et al. (Engers H D, Shechosky S, Madsen N B, Can J Biochem 1970 July; 48(7):746-754) was used to measure the conversion of glucose 1-phosphate into glycogen and inorganic phosphate, with the following modifications: human glycogen phosphorylase a (for example with 0.76 mg of protein/ml (Aventis Pharma Deutschland GmbH), dissolved in buffer solution E (25 mM β-glycerophosphate, pH 7.0, 1 mM EDTA and 1 mM dithiothreitol) was diluted with buffer T (50 mM Hepes, pH 7.0, 100 mM KCl, 2.5 mM EDTA, 2.5 mM MgCl2.6H2O) and addition of 5 mg/ml glycogen to a concentration of 10 μg of protein/ml. […] After incubation at 45° C. for 60 minutes, the absorption at 820 nm was measured. […]

| inhibition at 10 µM | SMILES |
| --- | --- |
| 42% | C#CC1(Nc2cc3c(=O)c(C(=O)OCC)cn(CC)c3nc2C)CCCCC1 [Example 2] |
| 35% | C#CC1(Nc2cc3c(=O)c(C(=O)O)cn(CC)c3nc2C)CCCCC1 [Example 3, 1-Ethyl-6-(1-ethynylcyclohexylamino)-7-methyl-4-oxo-1,4-dihydro[1,8]naphthyridine-3-carboxylic acid] |
